According to ChEMBL document CHEMBL5528074 (J Med Chem, 2024):
Activity calls are given as the source filed them. No cut-off for these calls is given here.

Assays:
[1] = Metabolic stability in monkey liver microsomes assessed as compound remaining at 1 uM incubated for 60 mins in presence of NADPH/UDPGA by LC-MS/MS analysis; assay type: ADME, Macaca mulatta, Microsome; conditions: rhesus monkey, 1 h
[2] = Clearance in C57BL/6 mouse at 1 mg/kg, iv measured upto 24 hrs by LC-MS/MS analysis; assay type: ADME, organism-based; conditions: in vivo
[3] = Toxicity in C57BL/6 mouse assessed as effect on liver at 3 mg/kg, po by H and E staining based analysis; assay type: organism-based; conditions: in vivo
[4] = Cmax in C57BL/6 mouse at 1 mg/kg, iv measured upto 24 hrs by LC-MS/MS analysis; assay type: ADME, organism-based; conditions: in vivo
Mus musculus [5] = test: Antiinflammatory activity against DSS-induced colitis C57BL/6 mouse model assessed as amelioration of colonic damage at 3 to 10 mg/kg, po by H and E staining based analysis; assay type: functional, organism-based; conditions: dose 3-10 mg/kg
[6] = Cmax in C57BL/6 mouse at 3 mg/kg, po measured upto 24 hrs by LC-MS/MS analysis; assay type: ADME, organism-based; conditions: in vivo
[7] = Metabolic stability in dog liver microsomes assessed as half life at 10 uM incubated for 60 mins in presence of NADPH/UDPGA by LC-MS/MS analysis; assay type: ADME, Canis lupus familiaris, Microsome
U-937 [8] = test: Antiinflammatory activity in human U-937 cells assessed as reversal of 7alpha,25-dihydroxycholesterol induced TNFA gene expression at 0.1 to 10 uM incubated for 24 hrs by qPCR analysis; assay type: functional, cell-based; conditions: dose 0.1-10 µM
[9] = Half life in C57BL/6 mouse at 1 mg/kg, iv measured upto 24 hrs by LC-MS/MS analysis; assay type: ADME, organism-based; conditions: in vivo
[10] = Metabolic stability in human liver microsomes assessed as half life at 10 uM incubated for 60 mins in presence of NADPH/UDPGA by LC-MS/MS analysis; assay type: ADME, Microsome; conditions: 1 h
[11] = Metabolic stability in rat liver microsomes assessed as compound remaining at 1 uM incubated for 60 mins in presence of NADPH/UDPGA by LC-MS/MS analysis; assay type: ADME, Microsome; conditions: read-out: Stability
Mus musculus [12] = test: Antiinflammatory activity against DSS-induced colitis C57BL/6 mouse model assessed as increase in CREB phosphorylation level at 3 to 10 mg/kg, po by immunohistochemical analysis; assay type: functional, organism-based; conditions: dose 3-10 mg/kg
U-937 [13] = test: Cytotoxicity against human U-937 cells measured after 72 hrs by CCK8 method; assay type: functional, cell-based
[14] = Toxicity in C57BL/6 mouse assessed as drug tolerance at 3 mg/kg, po by H and E staining based analysis; assay type: organism-based; conditions: in vivo
[15] = Metabolic stability in dog liver microsomes assessed as compound remaining at 1 uM incubated for 60 mins in presence of NADPH/UDPGA by LC-MS/MS analysis; assay type: ADME, Canis lupus familiaris, Microsome; conditions: read-out: Stability
[16] = AUC infinity in C57BL/6 mouse at 3 mg/kg, po measured upto 24 hrs by LC-MS/MS analysis; assay type: ADME, organism-based; conditions: in vivo
[17] = molecular target: T1, G-protein coupled receptor 183 (Homo sapiens, UniProt P32249)
Description: Antagonist activity at GPR183 (unknown origin) transfected in HEK293 cells incubated for 30 mins by Glosensor cAMP assay

U-937 [18] = test: Antimigratory activity against human U-937 cells assessed as inhibition of 7alpha,25-dihydroxycholesterol induced cell migration by CCK-8 method; assay type: functional, cell-based
Mus musculus [19] = test: Antiinflammatory activity against C57BL/6 mouse assessed as mitigation of DSS induced body weight loss administered as po measured for 10 days; assay type: functional, organism-based; conditions: dose 3-10 mg/kg, time 10.0 day
[20] = Toxicity in C57BL/6 mouse assessed as effect on heart at 3 mg/kg, po by H and E staining based analysis; assay type: organism-based; conditions: in vivo
Mus musculus [21] = test: Antiinflammatory activity against DSS-induced colitis C57BL/6 mouse model assessed as amelioration of inflammatory response at 3 to 10 mg/kg, po by H and E staining based analysis; assay type: functional, organism-based; conditions: dose 3-10 mg/kg
[22] = Toxicity in C57BL/6 mouse assessed as effect on lung at 3 mg/kg, po by H and E staining based analysis; assay type: organism-based; conditions: in vivo
Mus musculus [23] = test: Antiinflammatory activity against DSS-induced colitis C57BL/6 mouse model assessed as reduction in disease activity index (DAI) score at 3 mg/kg, po measured for 8 days; assay type: functional, organism-based; conditions: time 8.0 day
[24] = Metabolic stability in mouse liver microsomes assessed as compound remaining at 1 uM incubated for 60 mins in presence of NADPH/UDPGA by LC-MS/MS analysis; assay type: ADME, Microsome; conditions: 1 h
[25] = Toxicity in C57BL/6 mouse assessed as effect on kidney at 3 mg/kg, po by H and E staining based analysis; assay type: organism-based; conditions: in vivo
[26] = molecular target: T1, G-protein coupled receptor 183; test: Antagonist activity at GPR183 (unknown origin) transfected in HEK293 cells cotransfected with CRE-luciferase plasmid assessed as restoration of luciferase activity preincubated for 30 mins followed by 7alpha,25-dihydroxycholesterol induction and measured after 4 hrs by dual luciferase assay; assay type: functional, cell-based
U-937 [27] = test: Antiinflammatory activity in human U-937 cells assessed as reversal of 7alpha,25-dihydroxycholesterol induced IL1B gene expression at 0.1 to 10 uM incubated for 24 hrs by qPCR analysis; assay type: functional, cell-based; conditions: dose 0.1-10 µM
[28] = Metabolic stability in human liver microsomes assessed as compound remaining at 1 uM incubated for 60 mins in presence of NADPH/UDPGA by LC-MS/MS analysis; assay type: ADME, Microsome; conditions: 1 h
[29] = Metabolic stability in monkey liver microsomes assessed as half life at 10 uM incubated for 60 mins in presence of NADPH/UDPGA by LC-MS/MS analysis; assay type: ADME, Macaca mulatta, Microsome; conditions: rhesus monkey, 1 h
[30] = AUC infinity in C57BL/6 mouse at 1 mg/kg, iv measured upto 24 hrs by LC-MS/MS analysis; assay type: ADME, organism-based; conditions: in vivo
Mus musculus [31] = test: Antiinflammatory activity against DSS-induced colitis C57BL/6 mouse model assessed as reduction in Il1-beta expression in colon at 3 to 10 mg/kg, po; assay type: functional, organism-based; conditions: dose 3-10 mg/kg
[32] = Oral bioavailability in C57BL/6 mouse at 3 mg/kg measured upto 24 hrs by LC-MS/MS analysis; assay type: ADME, organism-based; conditions: in vivo
Mus musculus [33] = test: Antiinflammatory activity against DSS-induced colitis C57BL/6 mouse model assessed as reduction in Tnf-alpha expression in colon at 3 to 10 mg/kg, po; assay type: functional, organism-based; conditions: dose 3-10 mg/kg
[34] = molecular target: T1, G-protein coupled receptor 183; test: Antagonist activity at GPR183 (unknown origin) transfected in HEK293 cells co-expressing LgBiT-fused SmBiT-beta-arrestin assessed as reduction in beta-arrestin recruitment using nanoluciferase as substrate incubated for 30 mins by bioluminescence based NanoBiT assay; assay type: functional, cell-based
[35] = molecular target: T1, G-protein coupled receptor 183; test: Antagonist potency at GPR183 (unknown origin) transfected in HEK293 cells by schild plot analysis; assay type: cell-based; conditions: read-out: pA2 (converted)
[36] = Apparent volume of distribution in C57BL/6 mouse at 1 mg/kg, iv measured upto 24 hrs by LC-MS/MS analysis; assay type: ADME, organism-based; conditions: in vivo, read-out: Vz
[37] = Half life in C57BL/6 mouse at 3 mg/kg, po measured upto 24 hrs by LC-MS/MS analysis; assay type: ADME, organism-based; conditions: in vivo
[38] = molecular target: T1, G-protein coupled receptor 183; test: Antagonist activity at GPR183 (unknown origin) transfected in HEK293 cells assessed as reversal of 7alpha,25-Dihydroxycholesterol induced cAMP reduction incubated for 30 mins by Glosensor cAMP assay; assay type: functional, cell-based
[39] = Metabolic stability in mouse liver microsomes assessed as half life at 10 uM incubated for 60 mins in presence of NADPH/UDPGA by LC-MS/MS analysis; assay type: ADME, Microsome; conditions: 1 h
[40] = Toxicity in C57BL/6 mouse assessed as effect on spleen at 3 mg/kg, po by H and E staining based analysis; assay type: organism-based; conditions: in vivo

T1 sequence (P32249 whole entry): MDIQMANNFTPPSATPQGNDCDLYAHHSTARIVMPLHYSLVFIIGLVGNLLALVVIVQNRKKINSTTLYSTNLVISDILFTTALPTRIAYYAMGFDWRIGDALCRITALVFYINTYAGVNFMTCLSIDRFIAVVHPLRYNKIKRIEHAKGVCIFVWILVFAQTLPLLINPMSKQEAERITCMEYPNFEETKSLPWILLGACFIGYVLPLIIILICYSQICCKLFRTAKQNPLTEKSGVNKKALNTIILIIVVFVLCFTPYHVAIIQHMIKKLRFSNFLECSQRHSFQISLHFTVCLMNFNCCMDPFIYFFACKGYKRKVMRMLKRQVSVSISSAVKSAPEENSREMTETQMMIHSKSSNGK

In the case of `Nc1nc2ccc(C(=O)N3CCN(C(=O)/C=C/c4ccc(Br)cc4)CC3)cc2s1`, the Stability [1] is reported as 91.5%, the clearance [2] is reported as 8.72 mL/min/kg and the Activity [3] is reported as “Non-Toxic”. The Cmax [4] was 828 ng/mL, the Activity (Mus musculus [5]) was “Active” and the Cmax [6] was 817 ng/mL. For the same molecule, the half-life at 10 µM [7] was 6.42 h, the Activity (U-937 [8]) was “Active” and the half-life [9] was 1.61 h. The t1/2 [10] was 2.52 h, the remaining at 1 h, 1 µM [11] was 95.9% and the Activity (Mus musculus [12]) was “Active”. For the same molecule, the Activity (U-937 [13]) was “inactive”, the Activity [14] was “Non-Toxic” and the remaining at 1 h, 1 µM [15] was 96.5%. The AUC(0-inf) [16] was 4090 ng·h/mL, the IC50 [17] was 0.82 nM and the IC50 (U-937 [18]) was 0.73 nM. For the same molecule, the Activity (Mus musculus [19]) was “Dose-Dependent Effect”, the Activity [20] was “Non-Toxic” and the Activity (Mus musculus [21]) was “Active”. For the same molecule, the Activity [22] was “Non-Toxic”, the Activity (Mus musculus [23]) was “Active” and the Stability [24] was 96.2%. The Activity [25] was “Non-Toxic”, the IC50 [26] was 1.83 nM and the Activity (U-937 [27]) was “Active”. It also gave a Stability [28] of 98.4%, a t1/2 [29] of 1.36 h and an AUC(0-inf) [30] of 1920 ng·h/mL. The Activity (Mus musculus [31]) was “Active”, the bioavailability [32] was 71.1% and the Activity (Mus musculus [33]) was “Active”. For the same molecule, the IC50 [34] was 0.88 nM, the Kb [35] was 0.617 nM and the Vd [36] was 1.21 L/kg. The half-life [37] was 2.24 h, the IC50 [38] was 0.82 nM and the t1/2 [39] was 2.35 h. For the same molecule, the Activity [40] was “Non-Toxic”.
